# Source: patent US20250263753A1, “BRIDGED CYCLE-BASED INHIBITORS OF DNA-DEPENDENT PROTEIN KINASE AND COMPOSITIONS AND APPLICATION IN GENE EDITING” (Juno Therapeutics, Inc., priority 2023, published 2025)
# Where two headings read alike, the source gives them in different places.
# Columns and labels:
# [1] = target: PI3Kα (His-PIK3CA/PIK3R1, p110 alpha/p85 alpha) (Homo sapiens (Human), UniProt P42336); test: PI3Kα biochemical assay (HTRF/FRET probe); assay type: binding
# Procedure: Phosphoinositide 3-kinase α (PI3Kα) Biochemical Assay: A solution was prepared containing 0.2 nM Anti-HIS-Terbium (Cisbio, 64CUSTAZU), 3.7 nM designed-probe and 1.0 nM His-PIK3CA/PIK3R1 (p110 alpha/p85 alpha) in FRET Buffer (20 mM HEPES, 10 mM MgCl2, 0.015% Brij-35, 4 mM DTT, 0.05 mg/mL BSA).
# [2] = target: DNA-PK (Homo sapiens (Human), UniProt P78527); test: DNA-PK biochemical assay (Reaction Biology HotSpot kinase assay, 10 μM ATP)
# In short: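 Radiometric 33P-ATP kinase reaction in 20 mM Hepes pH 7.5, 10 mM MgCl2, 1 mM EGTA, 2 mM DTT, 1% DMSO. Compound preincubated with kinase and substrate 20 min at room temperature, then reaction run 2 h at room temperature after ATP addition. Activity read by P81 filter binding.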
# [3] = target: ATM (Homo sapiens (Human), UniProt Q13315); test: ATM biochemical assay (Reaction Biology HTRF kinase assay, 10 μM ATP)
# In short: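 HTRF kinase assay with N-terminal GST-tagged human p53 (aa2-393) substrate, 10 μM ATP, in 50 mM Hepes pH 7.5, 10 mM MnCl2, 1% DMSO. Enzyme preincubated with compound 30 min, reaction 2 h at room temperature. pS15 phosphorylation read by Eu-cryptate anti-p53-pS15/anti-GST-d2 HTRF (615/665 nm).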
# [4] = target: PI3Kδ (His-PIK3CD/PIK3R1, p110 delta/p85 alpha) (Homo sapiens (Human), UniProt O00329); test: PI3Kδ biochemical assay (HTRF/FRET probe); assay type: binding
# Procedure: Phosphoinositide 3-kinase (PI3K) Biochemical Assay: A solution was prepared containing 0.2 nM Anti-HIS-Terbium (Cisbio, 64CUSTAZU), 40 nM designed-probe and 1.0 nM His-PIK3CD/PIK3R1 (p110 delta/p85 alpha) in FRET Buffer (20 mM HEPES, 10 mM MgCl2, 0.015% Brij-35, 4 mM DTT, 0.05 mg/mL BSA).
# [5] = target: PI3Kβ (Homo sapiens (Human), UniProt P42338); test: PI3Kβ biochemical assay (Reaction Biology ADP-Glo)
# Procedure: Phosphoinositide 3-kinase R (PI3KP) Biochemical Assay using Reaction Biology's ADP-Glo Assay Platform:
# Step 1: Lipid kinases: Reaction Biology Corporation (RBC) currently offers lipid kinases in ADP-Glo format
# Step 2: Assay Description Assay principle: The kinase reactions utilize ATP and produce ADP as a byproduct. The ADP production is quantified by ADP-Glo luminescence detection. This is a 3-step reaction: First, the kinase reaction with lipid substrate is carried out in the presence of ATP, and the reaction is quenched and depleted remaining ATP with ADP-Glo™ reagent, and then finally ADP is converted to ATP which is measured using a luciferase/luciferin reaction.
# Step 3: Assay Procedure: 1. Prepare kinase in freshly prepared Reaction Buffer, kinase without substrate is delivered to background wells; 2. Deliver substrate into the kinase solution and gently mix, deliver to assay wells; 3. Deliver compounds in 100% DMSO into the kinase reaction mixture by Acoustic technology (Echo550; nanoliter range), incubate for 20 min at room temperature; 4. Deliver ATP into the reaction mixture to initiate the reaction; 5. Incubate for 60 min at 30° C.; 6. Quench the reaction with ADP-Glo reagent and incubate for 40 min; 7. Add Detection Mixture and incubate for 30 min; 8. Measure luminescence.
# Step 4: Data Analysis: The luminescence is converted into M ADP production based on ADP standard curves. The nonlinear regression to obtain the standard curve and IC50 values are performed using Graphpad Prism software.
# [6] = read-out: DNA-PK HotSpot 10 μM ATP IC50, numeric value
# [7] = read-out: ATM HTRF 10 μM ATP IC50, numeric value
# [8] = read-out: DNA-PK HotSpot 10 μM ATP IC50, class symbol
# [9] = read-out: ATM HTRF 10 μM ATP IC50, class symbol
# PI3Kα (His-PIK3CA/PIK3R1, p110 alpha/p85 alpha), sequence (P42336 whole entry, species assumed): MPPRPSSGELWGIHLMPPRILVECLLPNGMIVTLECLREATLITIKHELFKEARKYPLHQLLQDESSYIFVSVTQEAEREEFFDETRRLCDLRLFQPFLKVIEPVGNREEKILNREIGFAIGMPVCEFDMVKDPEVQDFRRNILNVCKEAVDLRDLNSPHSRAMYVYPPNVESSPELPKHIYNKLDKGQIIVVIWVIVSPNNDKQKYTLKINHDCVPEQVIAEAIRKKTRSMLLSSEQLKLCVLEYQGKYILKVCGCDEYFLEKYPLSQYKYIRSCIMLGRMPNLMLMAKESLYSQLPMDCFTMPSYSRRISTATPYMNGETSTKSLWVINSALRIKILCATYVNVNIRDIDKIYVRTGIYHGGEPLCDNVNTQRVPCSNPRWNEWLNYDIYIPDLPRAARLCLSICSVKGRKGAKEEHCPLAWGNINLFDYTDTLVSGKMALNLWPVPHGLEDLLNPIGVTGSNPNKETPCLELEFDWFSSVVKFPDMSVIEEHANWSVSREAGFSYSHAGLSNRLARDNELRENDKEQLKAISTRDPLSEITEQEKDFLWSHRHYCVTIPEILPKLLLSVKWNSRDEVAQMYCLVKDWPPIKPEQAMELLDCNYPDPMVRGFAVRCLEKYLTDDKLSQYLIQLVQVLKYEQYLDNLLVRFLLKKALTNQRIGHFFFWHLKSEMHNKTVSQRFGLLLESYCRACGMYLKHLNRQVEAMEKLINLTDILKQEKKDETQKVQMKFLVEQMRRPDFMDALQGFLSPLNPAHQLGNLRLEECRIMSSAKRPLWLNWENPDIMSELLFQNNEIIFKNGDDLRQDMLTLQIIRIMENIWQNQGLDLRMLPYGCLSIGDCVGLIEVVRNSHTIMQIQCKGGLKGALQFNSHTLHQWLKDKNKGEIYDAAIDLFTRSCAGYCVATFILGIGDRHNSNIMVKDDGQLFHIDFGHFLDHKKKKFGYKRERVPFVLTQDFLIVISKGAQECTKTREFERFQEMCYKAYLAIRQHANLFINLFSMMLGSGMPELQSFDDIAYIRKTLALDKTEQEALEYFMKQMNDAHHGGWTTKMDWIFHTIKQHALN
# PI3Kα (His-PIK3CA/PIK3R1, p110 alpha/p85 alpha), sequence (P27986 whole entry partner, species assumed): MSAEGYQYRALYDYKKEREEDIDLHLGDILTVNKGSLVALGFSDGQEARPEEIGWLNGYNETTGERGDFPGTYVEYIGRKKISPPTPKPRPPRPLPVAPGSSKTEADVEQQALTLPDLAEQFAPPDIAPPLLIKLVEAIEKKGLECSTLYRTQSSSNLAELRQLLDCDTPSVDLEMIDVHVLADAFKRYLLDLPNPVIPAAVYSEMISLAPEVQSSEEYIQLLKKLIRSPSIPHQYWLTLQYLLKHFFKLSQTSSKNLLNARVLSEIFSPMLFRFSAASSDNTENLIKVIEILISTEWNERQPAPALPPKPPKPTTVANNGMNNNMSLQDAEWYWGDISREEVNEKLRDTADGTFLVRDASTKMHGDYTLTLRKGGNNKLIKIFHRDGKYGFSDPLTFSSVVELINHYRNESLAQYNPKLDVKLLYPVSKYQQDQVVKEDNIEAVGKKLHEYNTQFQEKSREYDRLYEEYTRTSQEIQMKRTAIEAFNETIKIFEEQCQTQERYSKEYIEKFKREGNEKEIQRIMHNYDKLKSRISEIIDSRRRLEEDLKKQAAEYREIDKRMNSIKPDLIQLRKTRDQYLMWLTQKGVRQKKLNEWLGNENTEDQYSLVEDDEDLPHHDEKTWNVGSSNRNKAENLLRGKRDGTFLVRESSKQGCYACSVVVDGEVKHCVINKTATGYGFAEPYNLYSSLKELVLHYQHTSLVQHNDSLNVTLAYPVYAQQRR
# PI3Kδ (His-PIK3CD/PIK3R1, p110 delta/p85 alpha), sequence (O00329 whole entry, species assumed): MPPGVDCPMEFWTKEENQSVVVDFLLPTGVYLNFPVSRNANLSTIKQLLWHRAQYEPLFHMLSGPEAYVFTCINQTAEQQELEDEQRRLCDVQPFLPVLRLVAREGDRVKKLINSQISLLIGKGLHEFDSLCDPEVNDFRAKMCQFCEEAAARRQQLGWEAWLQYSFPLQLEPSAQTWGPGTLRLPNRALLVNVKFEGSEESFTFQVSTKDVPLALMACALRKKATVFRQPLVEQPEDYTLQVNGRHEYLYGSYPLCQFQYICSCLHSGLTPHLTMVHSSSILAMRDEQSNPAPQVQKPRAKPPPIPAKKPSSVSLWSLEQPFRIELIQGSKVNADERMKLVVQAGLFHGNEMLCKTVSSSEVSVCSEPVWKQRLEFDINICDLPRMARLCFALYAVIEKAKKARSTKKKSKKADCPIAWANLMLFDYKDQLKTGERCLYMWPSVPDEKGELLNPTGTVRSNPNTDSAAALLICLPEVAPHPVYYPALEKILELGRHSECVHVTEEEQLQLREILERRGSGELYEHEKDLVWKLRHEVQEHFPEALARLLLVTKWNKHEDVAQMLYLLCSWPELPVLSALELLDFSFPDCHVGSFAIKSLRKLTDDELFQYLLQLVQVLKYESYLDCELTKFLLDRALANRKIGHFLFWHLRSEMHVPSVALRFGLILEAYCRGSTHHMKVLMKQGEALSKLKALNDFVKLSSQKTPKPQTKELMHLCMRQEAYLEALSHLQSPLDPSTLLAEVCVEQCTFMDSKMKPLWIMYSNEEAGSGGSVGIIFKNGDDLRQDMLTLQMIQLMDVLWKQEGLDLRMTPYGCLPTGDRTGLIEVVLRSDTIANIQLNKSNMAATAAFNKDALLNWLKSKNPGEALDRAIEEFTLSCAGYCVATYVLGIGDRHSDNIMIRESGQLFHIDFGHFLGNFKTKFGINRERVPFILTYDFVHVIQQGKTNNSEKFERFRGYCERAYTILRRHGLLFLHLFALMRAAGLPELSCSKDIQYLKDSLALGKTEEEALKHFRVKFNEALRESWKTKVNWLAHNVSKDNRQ
# PI3Kδ (His-PIK3CD/PIK3R1, p110 delta/p85 alpha), sequence (P27986 whole entry partner, species assumed): as the sequence (P27986 whole entry partner, species assumed) above
# PI3Kβ, sequence (P42338 whole entry): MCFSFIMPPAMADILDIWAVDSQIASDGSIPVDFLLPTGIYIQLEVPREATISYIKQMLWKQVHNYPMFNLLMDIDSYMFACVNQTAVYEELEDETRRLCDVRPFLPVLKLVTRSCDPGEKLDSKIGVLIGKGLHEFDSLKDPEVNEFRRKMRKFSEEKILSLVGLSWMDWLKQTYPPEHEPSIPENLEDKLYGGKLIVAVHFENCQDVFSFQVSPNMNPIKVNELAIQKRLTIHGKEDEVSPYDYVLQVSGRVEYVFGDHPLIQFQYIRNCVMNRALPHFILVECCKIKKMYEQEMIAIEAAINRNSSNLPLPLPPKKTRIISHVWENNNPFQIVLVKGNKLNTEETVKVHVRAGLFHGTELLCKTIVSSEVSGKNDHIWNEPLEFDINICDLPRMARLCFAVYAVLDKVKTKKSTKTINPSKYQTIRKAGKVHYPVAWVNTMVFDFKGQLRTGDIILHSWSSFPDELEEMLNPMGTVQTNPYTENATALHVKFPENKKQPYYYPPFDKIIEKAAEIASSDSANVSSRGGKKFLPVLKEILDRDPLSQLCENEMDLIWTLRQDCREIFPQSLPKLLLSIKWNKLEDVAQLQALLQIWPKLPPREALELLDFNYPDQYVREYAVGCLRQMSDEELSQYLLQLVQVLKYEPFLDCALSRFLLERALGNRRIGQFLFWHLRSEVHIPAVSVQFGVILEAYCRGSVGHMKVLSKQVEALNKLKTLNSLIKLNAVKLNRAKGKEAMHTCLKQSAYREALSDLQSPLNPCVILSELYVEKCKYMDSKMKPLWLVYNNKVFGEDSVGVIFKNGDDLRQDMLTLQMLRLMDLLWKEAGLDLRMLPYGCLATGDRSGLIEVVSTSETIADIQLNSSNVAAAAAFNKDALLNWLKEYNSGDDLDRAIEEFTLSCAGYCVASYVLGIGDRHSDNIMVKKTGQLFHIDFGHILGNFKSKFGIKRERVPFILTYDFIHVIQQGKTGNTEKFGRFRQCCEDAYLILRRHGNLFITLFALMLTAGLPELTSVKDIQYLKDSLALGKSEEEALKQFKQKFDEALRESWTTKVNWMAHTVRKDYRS
# PI3Kβ, sequence (P27986 whole entry partner): as the sequence (P27986 whole entry partner, species assumed) above
Compound,IC50 ([1]; class symbol),IC50 ([1]; numeric value),IC50 ([2]; class symbol),"IC50 [2, 6]",IC50 ([3]; class symbol),"IC50 [3, 7]",IC50 ([4]; class symbol),IC50 ([4]; numeric value),IC50 ([5]; class symbol),IC50 ([5]; numeric value),"IC50 [2, 8]","IC50 [3, 9]"
"Cc1cc2ncnn2cc1Nc1ncc2c(n1)n(C13CCC(O)(CC1)C3)c(=O)n2C [Compound 1, 9-(4-hydroxybicyclo[2.2.1]heptan-1-yl)-7-methyl-2-((7-methyl-[1,2,4]triazolo[1,5-a]pyridin-6-yl)amino)-7,9-dihydro-8H-purin-8-one]",100 to 1000 nM,128 nM,< 1 nM,0.07 nM,10 to 100 nM,88 nM,≥ 1000 nM,1830 nM,100 to 1000 nM,658 nM,,
"Cc1cc2c(cc1Nc1ncc3c(n1)n(C14CCC(O)(CC1)C4)c(=O)n3C)OCO2 [Compound 2, 9-(4-hydroxybicyclo[2.2.1]heptan-1-yl)-7-methyl-2-((6-methylbenzo[d][1,3]dioxol-5-yl)amino)-7,9-dihydro-8H-purin-8-one]",≥ 1000 nM,,,,100 to 1000 nM,,≥ 1000 nM,,≥ 1000 nM,,< 1 nM,
"COC12CCC(n3c(=O)n(C)c4cnc(Nc5cn6ncnc6cc5C)nc43)(CC1)C2 [Compound 6, 9-(4-methoxybicyclo[2.2.1]heptan-1-yl)-7-methyl-2-((7-methyl-[1,2,4]triazolo[1,5-a]pyridin-6-yl)amino)-7,9-dihydro-8H-purin-8-one]",100 to 1000 nM,,,,10 to 100 nM,,≥ 1000 nM,,100 to 1000 nM,,< 1 nM,
"COC12CCC(n3c(=O)n(C)c4cnc(Nc5cc6c(cc5C)OCO6)nc43)(CC1)C2 [Compound 7, 9-(4-methoxybicyclo[2.2.1]heptan-1-yl)-7-methyl-2-((6-methylbenzo[d][1,3]dioxol-5-yl)amino)-7,9-dihydro-8H-purin-8-one]",100 to 1000 nM,,,,100 to 1000 nM,,≥ 1000 nM,,≥ 1000 nM,,< 1 nM,
"Cc1cc2ncccc2cc1Nc1ncc2c(n1)n(C13CC(F)(C1)C3)c(=O)n2C [Compound 11, 9-(3-fluorobicyclo[1.1.1]pentan-1-yl)-7-methyl-2-((7-methylquinolin-6-yl)amino)-7,9-dihydro-8H-purin-8-one]",100 to 1000 nM,,,,10 to 100 nM,,≥ 1000 nM,,100 to 1000 nM,,< 1 nM,
"Cc1cc2ncnn2cc1Nc1ncc2c(n1)n(C13CC(F)(C1)C3)c(=O)n2C [Compound 12, 9-(3-fluorobicyclo[1.1.1]pentan-1-yl)-7-methyl-2-((7-methyl-[1,2,4]triazolo[1,5-a]pyridin-6-yl)amino)-7,9-dihydro-8H-purin-8-one]",≥ 1000 nM,,,,100 to 1000 nM,,≥ 1000 nM,,≥ 1000 nM,,< 1 nM,
"Cc1cc2c(cc1Nc1ncc3c(n1)n(C14CC(F)(C1)C4)c(=O)n3C)OCO2 [Compound 13, 9-(3-fluorobicyclo[1.1.1]pentan-1-yl)-7-methyl-2-((6-methylbenzo[d][1,3]dioxol-5-yl)amino)-7,9-dihydro-8H-purin-8-one]",≥ 1000 nM,,1 to 10 nM,,,,≥ 1000 nM,,≥ 1000 nM,,,≥ 1000 nM
"Cc1cc2ncnn2cc1Nc1ncc2c(n1)n(C1CC3CCC1CC3)c(=O)n2C (stereo not shown) [Compound 42, 9-((1s,4s)-bicyclo[2.2.2]octan-2-yl)-7-methyl-2-((7-methyl-[1,2,4]triazolo[1,5-a]pyridin-6-yl)amino)-7,9-dihydro-8H-purin-8-one]",100 to 1000 nM,,,,10 to 100 nM,,≥ 1000 nM,,100 to 1000 nM,,< 1 nM,
"Cc1cc2ncnn2cc1Nc1ncc2c(n1)N(C13CC(F)(C1)C3)C(=O)C21CC1 [Compound 70, 7′-(3-fluorobicyclo[1.1.1]pentan-1-yl)-2′-((7-methyl-[1,2,4]triazolo[1,5-a]pyridin-6-yl)amino)spiro[cyclopropane-1,5′-pyrrolo[2,3-d]pyrimidin]-6′(7′H)-one]",≥ 1000 nM,,,,100 to 1000 nM,,≥ 1000 nM,,,,< 1 nM,
"Cc1cc2ncccc2cc1Nc1ncc2c(n1)N(C13CC(F)(C1)C3)C(=O)C21CC1 [Compound 71, 7′-(3-fluorobicyclo[1.1.1]pentan-1-yl)-2′-((7-methylquinolin-6-yl)amino)spiro[cyclopropane-1,5′-pyrrolo[2,3-d]pyrimidin]-6′(7′H)-one]",100 to 1000 nM,,,,100 to 1000 nM,,≥ 1000 nM,,,,< 1 nM,
"Cc1cc2nccnc2cc1Nc1ncc2c(n1)N(C13CC(F)(C1)C3)C(=O)C21CC1 [Compound 72, 7′-(3-fluorobicyclo[1.1.1]pentan-1-yl)-2′-((7-methylquinoxalin-6-yl)amino)spiro[cyclopropane-1,5′-pyrrolo[2,3-d]pyrimidin]-6′(7′H)-one]",100 to 1000 nM,,,,100 to 1000 nM,,≥ 1000 nM,,,,< 1 nM,
"Cc1cc2nsnc2cc1Nc1ncc2c(n1)N(C13CC(F)(C1)C3)C(=O)C21CC1 [Compound 73, 7′-(3-fluorobicyclo[1.1.1]pentan-1-yl)-2′-((6-methylbenzo[c][1,2,5]thiadiazol-5-yl)amino)spiro[cyclopropane-1,5′-pyrrolo[2,3-d]pyrimidin]-6′(7′H)-one]",100 to 1000 nM,,,,,,≥ 1000 nM,,,,< 1 nM,≥ 1000 nM
"Cc1cc(-c2cnco2)ncc1Nc1ncc2c(n1)N(C13CC(F)(C1)C3)C(=O)C21CC1 [Compound 74, 7′-(3-fluorobicyclo[1.1.1]pentan-1-yl)-2′-((4-methyl-6-(oxazol-5-yl)pyridin-3-yl)amino)spiro[cyclopropane-1,5′-pyrrolo[2,3-d]pyrimidin]-6′(7′H)-one]",100 to 1000 nM,,1 to 10 nM,,10 to 100 nM,,≥ 1000 nM,,,,,
"Cc1cc(-c2cnn(C)c2)ncc1Nc1ncc2c(n1)N(C13CC(F)(C1)C3)C(=O)C21CC1 [Compound 75, 7′-(3-fluorobicyclo[1.1.1]pentan-1-yl)-2′-((4-methyl-6-(1-methyl-1H-pyrazol-4-yl)pyridin-3-yl)amino)spiro[cyclopropane-1,5′-pyrrolo[2,3-d]pyrimidin]-6′(7′H)-one]",100 to 1000 nM,,1 to 10 nM,,10 to 100 nM,,≥ 1000 nM,,,,,
"Cc1cc2c(cc1Nc1ncc3c(n1)N(C14CC(F)(C1)C4)C(=O)C31CC1)OCO2 [Compound 76, 7′-(3-fluorobicyclo[1.1.1]pentan-1-yl)-2′-((6-methylbenzo[d][1,3]dioxol-5-yl)amino)spiro[cyclopropane-1,5′-pyrrolo[2,3-d]pyrimidin]-6′(7′H)-one]",≥ 1000 nM,,1 to 10 nM,,,,≥ 1000 nM,,,,,≥ 1000 nM
"[2H]C([2H])([2H])n1c(=O)n(C23CCC(O)(CC2)C3)c2nc(Nc3cn4ncnc4cc3C)ncc21 [Compound 77, 9-(4-hydroxybicyclo[2.2.1]heptan-1-yl)-7-(methyl-d3)-2-((7-methyl-[1,2,4]triazolo[1,5-a]pyridin-6-yl)amino)-7,9-dihydro-8H-purin-8-one]",100 to 1000 nM,,,,10 to 100 nM,,100 to 1000 nM,,,,< 1 nM,
"Cc1cc2ncnn2cc1Nc1ncc2c(n1)n(C13CCC(O)(CC1)CC3)c(=O)n2C [Compound 78, 9-(4-hydroxybicyclo[2.2.2]octan-1-yl)-7-methyl-2-((7-methyl-[1,2,4]triazolo[1,5-a]pyridin-6-yl)amino)-7,9-dihydro-8H-purin-8-one]",100 to 1000 nM,152 nM,< 1 nM,0.71 nM,10 to 100 nM,36 nM,100 to 1000 nM,214 nM,,,,
